For data set [1], the system named is Rattus norvegicus. The data set can be described thus: Antiallergic activity in adrenalectomized Sprague-Dawley rat assessed as inhibition of egg albumin-induced passive cutaneous anaphylaxis reaction at 10 mg/kg, iv after 30 mins by Evans blue staining. Particulars: 0.5 h. It is filed as functional.
Data set [2] concerns Ileum. The experiment in a line: Antiallergic activity in guinea pig ileum strips assessed as inhibition of serotonin-induced anaphylaxis. The class given is functional, tissue-based. Particulars: Cavia porcellus.
Data set [3] concerns Ileum. The data set can be described thus: Antiallergic activity in guinea pig ileum strips assessed as inhibition of bradykinin-induced anaphylaxis. It is filed as functional, tissue-based. Particulars: Cavia porcellus.
Data set [4] has as its system Stomach. The experiment in a line: Antiallergic activity in rat stomach strips assessed as inhibition of PGE2-induced anaphylaxis. It is filed as functional, tissue-based.
Data set [5] relates to Stomach. The experiment in a line: Antiallergic activity in rat stomach strips assessed as inhibition of […]-induced anaphylaxis. The class given is functional, tissue-based.
Data set [6] can be described thus: Antiallergic activity in guinea pig lung tissue assessed as inhibition of SRS-A production. The class given is functional, tissue-based, Cavia porcellus.
Data set [7] deals with Rattus norvegicus. The experiment in a line: Antiallergic activity in iv dosed adrenalectomized Sprague-Dawley rat assessed as inhibition of egg albumin-induced passive cutaneous anaphylaxis reaction after 30 mins by Evans blue staining. It is filed as functional. Particulars: 0.5 h.
The test system of data set [8] is Ileum. The data set can be described thus: Antiallergic activity in guinea pig ileum strips assessed as inhibition of histamine-induced anaphylaxis. The settings on record: Cavia porcellus. The class given is functional, tissue-based.
Data set [9] concerns Stomach. The data set can be described thus: Antiallergic activity in rat stomach strips assessed as inhibition of PGE2-induced anaphylaxis at 25 ug/ml. The class given is functional.
The subject of data set [10] is Stomach. The experiment in a line: Antiallergic activity in rat stomach strips assessed as inhibition of […]-induced anaphylaxis at 25 ug/ml. It is filed as functional.
Data set [11] deals with Stomach. The data set can be described thus: Antiallergic activity in rat stomach strips assessed as inhibition of […]-induced anaphylaxis at 100 ug/ml. It is filed as functional.
A short description of data set [12]: Antiallergic activity in guinea pig lung tissue assessed as inhibition of SRS-A production at 1 ug/ml. The settings on record: Cavia porcellus. The class given is functional.
The subject of data set [13] is Rattus norvegicus. The data set can be described thus: Antiallergic activity in adrenalectomized Sprague-Dawley rat assessed as inhibition of egg albumin-induced passive cutaneous anaphylaxis reaction at 3 mg/kg, iv after 30 mins by Evans blue staining. It is filed as functional. Particulars: 0.5 h.
Data set [14] relates to Rattus norvegicus. The experiment in a line: Toxicity in adrenalectomized Sprague-Dawley rat at 10 mg/kg, iv. It is filed as organism-based. Also noted: dose 10 mg/kg, route intravenous. The settings on record: in vivo.

Values after ≈ are worked out from the molar mass of the structure shown. A value given as a limit tells only on which side of the number the result lay.

Consider `CC1(C)Oc2cc3oc(C(=O)O)cc(=O)c3cc2-c2ccccc21.NCCO`, for which the inhibition in vivo at 10 mg/kg with Rattus norvegicus [1] was 81%. Besides, the EC50 with Ileum [2] turned out to be 92 µg/mL; in the data set with Ileum [3], 145 µg/mL; with Stomach [4] it was 70 µg/mL; with Stomach [5] it was 17 µg/mL; in data set [6], 32 µg/mL; with Ileum [8] it was 150 µg/mL. Further, the ED50 in the data set on Rattus norvegicus [7] is 0.5 mg/kg.
Regarding `CC1(C)Oc2cc3oc(=O)cc([O-])c3cc2-c2ccccc21.[Na+]`, the inhibition in vivo at 10 mg/kg in the data set with Rattus norvegicus [1] was determined as 67%. Moreover, the EC50 amounted to 10.2 µg/mL in the data set on Ileum [2]; 17 µg/mL in the data set on Ileum [3]; 56 µg/mL with Stomach [4]; 26 µg/mL in the data set with Stomach [5]; 55 µg/mL with Ileum [8].
For `COc1cc2c(cc1Br)-c1cc3c([O-])cc(=O)oc3cc1OC2(C)C.[Na+]`, the inhibition in vivo at 10 mg/kg with Rattus norvegicus [1] was found to be 33%. Further, the EC50 in the data set with Ileum [2] worked out at 4.4 µg/mL; in the data set on Ileum [3], 51 µg/mL; in the data set on Stomach [4] it was 55 µg/mL; in the data set on Stomach [5], 14 µg/mL; in data set [6], 28 µg/mL; with Ileum [8], 39 µg/mL.
`CC1(C)Oc2cc3oc(=O)cc([O-])c3cc2-c2ccc(Cl)cc21.[Na+]`: the inhibition in vivo at 10 mg/kg with Rattus norvegicus [1] was 0%. For the same compound, the EC50 with Ileum [2] was 10.2 µg/mL; in the data set on Ileum [3], 5.3 µg/mL; in the data set with Stomach [4] it was 45 µg/mL; with Ileum [8], 21 µg/mL.
With `CC1(C)Oc2cc3oc(=O)cc(O)c3cc2-c2ccc(F)cc21`, the inhibition in vivo at 10 mg/kg with Rattus norvegicus [1] came out at 60%.
Consider `CC1(C)Oc2cc3oc(=O)cc([O-])c3cc2-c2ccc(O)cc21.[Na+]`, for which the inhibition in vivo at 10 mg/kg with Rattus norvegicus [1] came out at 61%. In addition, the EC50 is 15 µg/mL in the data set with Ileum [2]; 84 µg/mL with Ileum [3]; 40 µg/mL with Stomach [4]; 47 µg/mL in the data set on Stomach [5]; 13 µg/mL in data set [6]; over 200 µg/mL in the data set with Ileum [8].
For the compound `COc1ccc2c(c1)C(C)(C)Oc1cc3oc(=O)cc([O-])c3cc1-2.[Na+]`, the inhibition in vivo at 10 mg/kg in the data set on Rattus norvegicus [1] came to 67%. For the same compound, the EC50 with Ileum [2] was found to be 16 µg/mL; with Ileum [3] it was 9.2 µg/mL; in the data set with Stomach [4], 68 µg/mL; in the data set with Stomach [5] it was 23 µg/mL; with Ileum [8], 13.2 µg/mL. The ED50 in the data set on Rattus norvegicus [7] is 9 mg/kg.
With `CCCOc1ccc2c(c1)C(C)(C)Oc1cc3oc(=O)cc([O-])c3cc1-2.[Na+]`, the inhibition in vivo at 10 mg/kg with Rattus norvegicus [1] was determined as 0%. In addition, the EC50 in the data set with Ileum [2] stood at 4.7 µg/mL; in the data set on Ileum [3], 14 µg/mL; in the data set with Stomach [4] it was 70 µg/mL; in the data set with Ileum [8], 7 µg/mL.
On to `CC1(C)Oc2cc3oc(=O)cc([O-])c3cc2-c2ccc(OCCO)cc21.[Na+]`, for which the inhibition in vivo at 10 mg/kg in the data set on Rattus norvegicus [1] came to 87%. Besides, the EC50 in the data set with Ileum [2] is 11 µg/mL; in the data set on Ileum [3], 92 µg/mL; in the data set on Stomach [4], 62 µg/mL; with Stomach [5], 16 µg/mL; with Ileum [8], over 200 µg/mL. In the data set with Rattus norvegicus [7], the ED50 amounted to 0.3 mg/kg.
For the compound `Cc1c2c(cc3oc(=O)cc([O-])c13)OC(C)(C)c1ccccc1-2.[Na+]`, the inhibition in vivo at 10 mg/kg with Rattus norvegicus [1] stood at 0%. For the same compound, the EC50 was determined as 4.8 µg/mL with Ileum [2], 17.5 µg/mL with Ileum [3] and 14.5 µg/mL in the data set on Ileum [8].
For `O=C([O-])c1cc(=O)c2c(OCC(O)COc3cccc4oc(C(=O)[O-])cc(=O)c34)cccc2o1.[Na+].[Na+]` [CROMOLYN SODIUM], the inhibition in vivo at 10 mg/kg in the data set with Rattus norvegicus [1] was 80%. The EC50 (in the data set on Ileum [2]; in the data set with Ileum [3]; in the data set with Stomach [4]; in the data set with Stomach [5]; in data set [6]; with Ileum [8]) was over 200 µg/mL throughout. The ED50 with Rattus norvegicus [7] is 2.9 mg/kg.
Consider `CN1CCC(=C2c3ccccc3C=Cc3ccccc32)CC1` [CYPROHEPTADINE], for which the inhibition in vivo at 10 mg/kg in the data set on Rattus norvegicus [1] is 51%. Further, the EC50 is 0.04 µg/mL (≈ 0.139 µM) with Ileum [2]; 2 µg/mL (≈ 6.96 µM) in the data set on Ileum [3]; 25 µg/mL (≈ 87 µM) with Stomach [4]; 65 µg/mL (≈ 226 µM) with Stomach [5]; under 1 µg/mL in [6]; 0.04 µg/mL (≈ 0.139 µM) in the data set with Ileum [8]. The values for the inhibition at 25 µg/mL in the data set with Stomach [9] and in the data set with Stomach [10] were 54% and 33%, respectively. Besides, the inhibition at 100 µg/mL in the data set with Stomach [11] came out at 74%. The inhibition at 1 µg/mL in [12] is 62%. Further, in the data set on Rattus norvegicus [13], the inhibition in vivo at 3 mg/kg amounted to 30%. The Activity result with Rattus norvegicus [14] is reported as “Toxic”.

A word on the inhibition in vivo: it is the relative decrease from the control value, in per cent. A word on the EC50: it is the concentration at which the effect is half-maximal. As usually defined, the ED50 is the dose that gives a 50% effect, or the effect in half of the subjects. The term inhibition denotes the relative decrease from the control value, in per cent.

For the origin of these results see ChEMBL document CHEMBL3244274, “Antiallergic 9-oxo-11-hydroxy-5H,9H-[2]benzopyrano[4,3-g][1]benzopyrans” (J Med Chem, 1978).
